# Measured values from patent US7462635B2, “Thiazole and oxazole VDAC regulator” (Takeda Pharmaceutical Company Limited, priority 2002, dated 2008).
# How the values were obtained:
# PC12 cells [1] = assay: Mitochondria respiration activity-increasing action using Alamar Blue; assay type: cell-based; conditions: FCS-free DMEM, 3 μmol/L, 3 hours, B-27 addition group = 100%, non-addition group 73.2%±1.9%, mean±standard deviation, n=7
# Experimental: The mitochondria respiration activity-increasing action of Compound (5) was evaluated using Alamar Blue.
# After PC12 cells, pre-cultured in a DMEM containing 10% fetal calf serum (FCS), were suspended in the same medium to obtain a concentration of 2×10^5 cells/mL, the obtained suspension was sown to a 96-well culture plate to obtain a concentration of 0.1 mL/well and cultured for 24 hours. After said culture plate was washed with DMEM, a solution obtained by diluting Compound (5) in FCS-free DMEM to obtain a concentration of 3 μmol/L was added, and cultivation was carried out for 3 hours [Compound (5) addition group]. […]
# Subsequently, to each well of the culture plate, 10 μL of Alamar Blue solution (Alamar Biosciences), which is a mitochondria respiration activity indicator, was added; fluorescence just after the addition and after the plate was allowed to stand in a 5% CO2 incubator at 37° C. for 10 minutes was determined using a Fluoroscan (Flow Laboratories) [excitation wavelength (Ex.): 538 nm, emission wavelength (Em.): 590 nm], and its variation was obtained.
# Furthermore, taking the fluorescence variation in the B-27 addition group as 100%, relative values of fluorescence variation in the Compound (5) addition group and the Compound (5) non-addition group were calculated.
# PC12 cells [2] = assay: Cytochrome c leakage suppressing action (cytochrome c ELISA of cytoplasmic protein); assay type: cell-based; conditions: DMEM with 0.5% FCS, 0.3 μmol/L Compound (5), 16 hours, 0.5% FCS group without compound 19.4
# Experimental: The effect of Compound (5) on VDAC function was evaluated by determining the amount of cytochrome c leakage in the cytoplasm of PC12 cells.
# PC12 cells, pre-cultured in a DMEM (Dulbecco's Modified Eagle's Medium) containing 10% FCS (Fetal Calf Serum), were sown to a culture dish of 10 cm diameter (Falcon) and cultured until they became nearly confluent. After the culture dish was washed with DMEM, a DMEM containing 0.5% FCS (0.5% FCS group) or a DMEM containing 0.5% FCS and 0.3 μmol/L Compound (5) (0.5% FCS+Compound (5) group) was added, and the cells were further cultured for 16 hours. The cells suspended in the culture broth and the cells adhering to the culture dish, detached by trypsin-EDTA treatment, were recovered. The recovered cells, after being washed with PBS, were ice-cooled in a digitonin solution [10 mmol/L HEPES, 0.3 mol/L mannitol, 0.1% (w/v) BSA, 100 μmol/L digitonin] (100 μL) for 5 minutes to extract cytoplasmic protein. After the obtained cytoplasmic protein was centrifuged at 8500×g for 5 minutes, 12 μL of the supernatant was analyzed using an assay kit [cytochrome c ELISA kit (MBL) and […] (Pierce), respectively] to determine its cytochrome c content and protein content. Subsequently, the cytochrome c content per unit amount of total protein was calculated, and this was taken as the amount of cytochrome c leakage (ng/mg). The results are shown in [Table 1].
# PC12 cells [3] = assay: Mitochondria membrane potential-stabilizing action using Rodamin 123; assay type: cell-based; conditions: FCS-free DMEM, 3 μmol/L, 4 hours, FCS addition group = 100%, non-addition group 131.2±12.9%, mean±standard deviation, n=8
# Experimental: The mitochondria membrane potential-stabilizing action of Compound (5) was evaluated using Rodamin 123 (trade name, Molecular Probe).
# After PC12 cells, pre-cultured in a DMEM containing 10% fetal calf serum (FCS), were suspended in the same medium to obtain a concentration of 2×10^5 cells/mL, the obtained suspension was sown to a 96-well culture plate to obtain a concentration of 0.1 mL/well and cultured for 24 hours. After said culture-plate was washed with DMEM, a solution obtained by diluting Compound (5) in FCS-free DMEM to obtain a concentration of 3 μmol/L was added, and cultivation was carried out for 4 hours [Compound (5) addition group]. […]
# Subsequently, to each well of the culture plate, Rodamin 123 (trade name, Molecular Probe), which is a mitochondria membrane potential indicator, was added to obtain a concentration of 1 μmol/L; fluorescence just after the addition and after the plate was allowed to stand in a 5% CO2 incubator at 37° C. for 10 minutes was determined using a Fluoroscan (Flow Laboratories) [excitation wavelength (Ex.): 485 nm, emission wavelength (Em.): 538 nm], and its variation was obtained.
# Furthermore, taking the fluorescence variation in the FCS addition group as 100%, relative values of fluorescence variation in the Compound (5) addition group and the Compound (5) non-addition group were calculated.
# VDAC-3 = target: T1, VDAC-3 (Homo sapiens, UniProt Q9Y277); assay: Identification of Compound (5)-binding protein: elution from Compound A-immobilized latex particles, SDS-PAGE, TOF-MS; conditions: SK-N-SH nuclear fraction protein; elution with 300 μM Compound (5), 4° C., 1.5 hours; silver staining
# T1 construct: protein was extracted from the nuclear fraction of human neuroblastoma SK-N-SH (ATCC); endogenous in cells; host or cells: SK-N-SH human neuroblastoma cells (ATCC)
# T1 sequence (Q9Y277 1-283): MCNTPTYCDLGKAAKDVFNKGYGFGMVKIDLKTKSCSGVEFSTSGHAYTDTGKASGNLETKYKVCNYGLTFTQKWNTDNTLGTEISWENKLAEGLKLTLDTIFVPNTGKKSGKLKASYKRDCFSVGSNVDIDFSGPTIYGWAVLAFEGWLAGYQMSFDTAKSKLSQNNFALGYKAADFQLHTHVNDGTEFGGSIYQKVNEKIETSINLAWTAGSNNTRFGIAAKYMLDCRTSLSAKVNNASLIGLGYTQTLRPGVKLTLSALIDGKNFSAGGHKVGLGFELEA
# Experimental: (§1) After 5 mg of carboxyl group-type latex particles obtained in Reference Example 1 was dispersed in dioxane, 23 mg of N-hydroxysuccinimide and 38 mg of water-soluble carbodiimide were added, and they were reacted at room temperature (about 20 to 25° C., the same applies below) for 2 hours. After the obtained succinimide-immobilized particles were washed with methanol, they were reacted with 4 mM Compound A (amino derivative of Compound (5)) in 0.5 mL of 0.2M sodium acetate buffer solution (pH 5.3) at room temperature for 1 hour to thereby immobilize Compound A onto the particles. To the obtained particles, 1M aqueous solution of ethanolamine-hydrochloric acid (pH 8.5) was added, and they were reacted at room temperature or 2 hours to thereby block unreacted groups in the succinimide-immobilized particles, after which the particles were washed with 50% methanol and water to give Compound A-immobilized particles. The Compound A-immobilized particles were dispersed in water to obtain a concentration of 10 mg/mL and stored under refrigeration. […]
# (§2) Subsequently, centrifugation (15, 000×g, 5 minutes) was carried out, the supernatant was removed, and the obtained particles were washed with 0.05TGEMN buffer. […] After centrifugation (15, 000×g, 5 minutes), the protein-containing supernatant was analyzed by SDS-PAGE. […]
# PC12 cells [4] = assay: Apoptosis-suppressing action: nucleosome content (Cell Death Detection ELISA), low serum-induced apoptosis; assay type: cell-based; conditions: DMEM with 0.5% FCS, 0.3 μmol/L Compound (5), 24 hours, 10% FCS group = 100%, 0.5% FCS group 422
# Experimental: The apoptosis-suppressing action of Compound (5) was evaluated by determining the nucleosome content in PC12 cells.
# PC12 cells, pre-cultured in a DMEM containing 10% FCS, were sown to a 24-well culture plate to obtain a concentration of 6×10^4 cells/well, and cultured for 24 hours. After the culture plate was washed with DMEM, a DMEM containing 0.5% FCS (0.5% FCS group) or a DMEM containing 0.5% FCS and 0.3 μmol/L Compound (5) (0.5% FCS+Compound (5) group) was added, and the cells were further cultured for 24 hours. Also, as a control group, the same procedures were carried out using a DMEM containing 10% FCS (10% FCS group). The cells suspended in the culture broth and the cells adhering to the culture plate, detached by trypsin-EDTA treatment, were recovered. According to the protocol of an apoptosis assay kit with nucleosome detection as an index (Cell Death Detection ELISA, Roche), the recovered cells were suspended in 500 μL of the cytolytic solution attached to said assay kit. After the suspension was ice-cooled for 30 minutes, it was centrifuged at 15, 000 rpm for 10 minutes and 400 μL of the supernatant was recovered. Said supernatant was diluted 2 fold and subjected to ELISA to determine its nucleosome content. Subsequently, taking the nucleosome content in the 10% FCS group as 100%, percentage in each group was calculated. The results are shown in [Table 2].
# [5] = target: T2, voltage-dependent anion channel (VDAC)-1 (Homo sapiens, UniProt P21796); assay: Identification of Compound (5)-binding protein: elution from Compound A-immobilized latex particles, SDS-PAGE, TOF-MS, immunoblotting; conditions: SK-N-SH nuclear fraction protein; elution with 300 μM Compound (5), 4° C., 1.5 hours; silver staining
# T2 construct: protein was extracted from the nuclear fraction of human neuroblastoma SK-N-SH (ATCC); endogenous in cells; host or cells: SK-N-SH human neuroblastoma cells (ATCC)
# T2 sequence (P21796 whole entry): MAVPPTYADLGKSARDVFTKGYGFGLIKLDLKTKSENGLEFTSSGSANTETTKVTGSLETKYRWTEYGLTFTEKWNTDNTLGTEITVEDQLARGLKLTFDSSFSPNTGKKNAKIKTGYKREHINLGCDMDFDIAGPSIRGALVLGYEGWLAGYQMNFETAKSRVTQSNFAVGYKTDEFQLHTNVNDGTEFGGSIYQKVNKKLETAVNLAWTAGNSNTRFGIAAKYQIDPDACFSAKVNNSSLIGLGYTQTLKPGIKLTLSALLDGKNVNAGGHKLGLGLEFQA
# Experimental: as §1, §2
smiles,measurement,setting,value
"Cc1ccccc1OCCCc1oc(-n2ccnc2C)nc1-c1ccc(Cl)cc1 [Compound (5), 4-(4-chlorophenyl)-2-(2-methyl-1-imidazolyl)-5-[3-(2-methylphenoxy)propyl]oxazole]","fluorescence variation (Alamar Blue), relative value",PC12 cells [1],126.7%±15.7%
same,Amount of cytochrome c leakage,PC12 cells [2],7.0 ng/mg
same,"fluorescence variation (Rodamin 123), relative value",PC12 cells [3],110.0%±8.0%
same,about 30 kDa protein band (VDAC-3) eluted from Compound A-immobilized particles,VDAC-3,eluted selectively
same,Nucleosome content,PC12 cells [4],176%
same,about 32 kDa protein band (VDAC-1) eluted from Compound A-immobilized particles,[5],eluted selectively
